Source: patent publication US12077503B2, “Substituted cyclic amides and their use as herbicides” (FMC CORPORATION, priority 2015, dated 2024)

What was measured:
Format in all cases: in vivo
[1] = tested on: Kochia (Kochia scoparia); assay: Test A preemergence
Summary of the method: (§1)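 Preemergence directed soil spray on seeded pots, or postemergence application to plants 2–10 cm, one- to two-leaf. Solvent mixture non-phytotoxic, with surfactant. Scored ~10 d later, visually, 0–100 vs untreated.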

[2] = tested on: barnyardgrass (Echinochloa crus-galli); assay: Test A preemergence
Summary of the method: as §1

[3] = tested on: giant foxtail (Setaria faberii); assay: Test A preemergence
Summary of the method: as §1

[4] = tested on: pigweed (Amaranthus retroflexus); assay: Test A preemergence
[5] = tested on: ragweed (common ragweed, Ambrosia elatior); assay: Test A preemergence
Summary of the method: as §1

[6] = tested on: ryegrass, Italian (Italian ryegrass, Lolium multiflorum); assay: Test A preemergence
Summary of the method: as §1

[7] = tested on: Galium (catchweed bedstraw, Galium aparine); assay: Test A postemergence; conditions: postemergence, 0 to 100 scale (0 no effect, 100 complete control)
Summary of the method: as §1

[8] = tested on: Kochia (Kochia scoparia); assay: Test A postemergence; conditions: postemergence, 0 to 100 scale (0 no effect, 100 complete control)
Summary of the method: as §1

[9] = tested on: barnyardgrass (Echinochloa crus-galli); assay: Test A postemergence; conditions: postemergence, 0 to 100 scale (0 no effect, 100 complete control)
Summary of the method: as §1

[10] = tested on: blackgrass (Alopecurus myosuroides); assay: Test A postemergence; conditions: postemergence, 0 to 100 scale (0 no effect, 100 complete control)
Summary of the method: as §1

[11] = tested on: corn (Zea mays); assay: Test A postemergence; conditions: postemergence, 0 to 100 scale (0 no effect, 100 complete control)
Summary of the method: as §1

[12] = tested on: giant foxtail (Setaria faberii); assay: Test A postemergence; conditions: postemergence, 0 to 100 scale (0 no effect, 100 complete control)
Summary of the method: as §1

[13] = tested on: pigweed (Amaranthus retroflexus); assay: Test A postemergence; conditions: postemergence, 0 to 100 scale (0 no effect, 100 complete control)
Summary of the method: as §1

[14] = tested on: ragweed (common ragweed, Ambrosia elatior); assay: Test A postemergence; conditions: postemergence, 0 to 100 scale (0 no effect, 100 complete control)
Summary of the method: as §1

[15] = tested on: ryegrass, Italian (Italian ryegrass, Lolium multiflorum); assay: Test A postemergence; conditions: postemergence, 0 to 100 scale (0 no effect, 100 complete control)
Summary of the method: as §1

[16] = tested on: wheat (Triticum aestivum); assay: Test A postemergence; conditions: postemergence, 0 to 100 scale (0 no effect, 100 complete control)
Summary of the method: as §1

[17] = tested on: barnyardgrass (Echinochloa crus-galli); assay: Test B flooded paddy test; conditions: Flood, 250 g ai/ha; 0 to 100 scale where 0 is no effect and 100 is complete control; 13 to 15 d
Summary of the method: (§2)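 Plants at 2-leaf stage flooded to 3 cm above soil, with compounds applied directly to paddy water and that depth maintained. Plants kept in greenhouse 13–15 d. Visual rating versus controls on a 0 (no effect) to 100 (complete control) scale.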

[18] = tested on: ducksalad (Heteranthera limosa); assay: Test B flooded paddy test; conditions: Flood, 250 g ai/ha; 0 to 100 scale where 0 is no effect and 100 is complete control; 13 to 15 d
Summary of the method: as §2

[19] = tested on: rice (Oryra sativa); assay: Test B flooded paddy test; conditions: Flood, 250 g ai/ha; 0 to 100 scale where 0 is no effect and 100 is complete control; 13 to 15 d
Summary of the method: as §2

[20] = tested on: sedge, umbrella (small-flower umbrella sedge, Cyperus difformis); assay: Test B flooded paddy test; conditions: Flood, 250 g ai/ha; 0 to 100 scale where 0 is no effect and 100 is complete control; 13 to 15 d
Summary of the method: as §2

[21] = 125 g ai/ha, Preemergence, visual injury after approximately 10 d, 0 to 100 scale where 0 is no effect and 100 is complete control
[22] = 500 g ai/ha, preemergence, 0 to 100 scale, 0 = no effect, 100 = complete control
[23] = 125 g ai/ha, visual rating after approx. 10 d
[24] = 500 g ai/ha, visual injury, approx. 10 d

Row | SMILES | Plant response rating, Kochia [1, 21] | Plant response rating, Kochia [1, 22] | Plant response rating, Barnyardgrass [2, 21] | Plant response rating, Barnyardgrass [2, 22] | Plant response rating, Foxtail, Giant [3, 21] | Plant response rating, Foxtail, Giant [3, 22] | Plant response rating, Pigweed [4, 21] | Plant response rating, Pigweed [4, 22] | Plant response rating, Ragweed [5, 21] | Plant response rating, Ragweed [5, 22] | Plant response rating, Ryegrass, Italian [6, 21] | Plant response rating, Ryegrass, Italian [6, 22] | Plant response rating, Galium [7, 23] | Plant response rating, Galium [7, 24] | Plant response rating, Kochia [8, 23] | Plant response rating, Kochia [8, 24] | Plant response rating, Barnyardgrass [9, 23] | Plant response rating, Barnyardgrass [9, 24] | Plant response rating, Blackgrass [10, 23] | Plant response rating, Blackgrass [10, 24] | further results
1 | Cc1ccc(C2CNC(=O)C2C(=O)Nc2cccc(F)c2F)cc1C(F)(F)F (racemic) [Compound 679] | 30 | 60 | 80 | 90 | 90 | 90 | 0 | 40 | 0 | 30 | 20 | 30 | 40 | 60 | 0 | 0 | 40 | 70 | 30 | 60 | Plant response rating, Corn [11, 23]: 20; Plant response rating, Corn [11, 24]: 50; Plant response rating, Foxtail, Giant [12, 23]: 0; Plant response rating, Foxtail, Giant [12, 24]: 30; Plant response rating, Pigweed [13, 23]: 0; Plant response rating, Pigweed [13, 24]: 40; Plant response rating, Ragweed [14, 23]: 0; Plant response rating, Ragweed [14, 24]: 20; Plant response rating, Ryegrass, Italian [15, 23]: 0; Plant response rating, Ryegrass, Italian [15, 24]: 20; Plant response rating, Wheat [16, 23]: 0; Plant response rating, Wheat [16, 24]: 20; Plant response rating, Barnyardgrass [17]: 30; Plant response rating, Ducksalad [18]: 55; Plant response rating, Rice [19]: 0; Plant response rating, Sedge, Umbrella [20]: 0
2 | Cc1ccc(C2CNC(=O)C2C(=O)Nc2ccc(F)c(F)c2F)cc1C(F)(F)F (racemic) [Compound 681] | 20 | 60 | 70 | 80 | 90 | 90 | 0 | 30 | 0 | 0 | 0 | 30 | 30 | 50 | 0 | 40 | 40 | 90 | 0 | 30 | Plant response rating, Corn [11, 23]: 0; Plant response rating, Corn [11, 24]: 30; Plant response rating, Foxtail, Giant [12, 23]: 0; Plant response rating, Foxtail, Giant [12, 24]: 30; Plant response rating, Pigweed [13, 23]: 0; Plant response rating, Pigweed [13, 24]: 0; Plant response rating, Ragweed [14, 23]: 0; Plant response rating, Ragweed [14, 24]: 0; Plant response rating, Ryegrass, Italian [15, 23]: 0; Plant response rating, Ryegrass, Italian [15, 24]: 20; Plant response rating, Wheat [16, 23]: 0; Plant response rating, Wheat [16, 24]: 0; Plant response rating, Barnyardgrass [17]: 35; Plant response rating, Ducksalad [18]: 25; Plant response rating, Rice [19]: 0; Plant response rating, Sedge, Umbrella [20]: 0
